Here are results for 28 molecules from patent US9730944B2, “Antiviral activity of novel bicyclic heterocycles” (priority 2010, dated 2017).

Series [1] has as its system genotype 1a H-77 replicon. Put plainly: HCV-1a replicon potency in RLuc-1 cells, bioluminescence. The class given is cell-based. The settings on record: for EC50: Hepatitis C virus, 72 h, read-out: HCV-1a Replicon EC50 (μM); for HCV-1a Replicon Selectivity Index: CC50/EC50, genotype 1a replicon.
Series [2] is described as follows: Cytotoxicity in HCV-1a replicon cells, Promega CellTiter-Glo cell viability assay. On the technique in general: In antiviral work, replicon cells carry a viral genome segment that copies itself.
Another series concerns HIV-1 strain IIIB. Put plainly: Inhibition of replication of HIV-1 (IIIB strain) in MT-4 cells, MTT assay. Type of series: cell-based. As to conditions: Human immunodeficiency virus 1, IIIB, MT4, 120 h; MT-4 cells, MTT assay, five days after infection, 50% protection from cytopathic effect; read-out: EC50 (μM) HIV-1 (IIIB). A general note: Tetrazolium assays rely on reduction of a dye to a coloured formazan, in cell work by metabolically active cells.

A further series can be described thus: in vitro. As to conditions: human.
The subject of another series is HIV-2 strain (ROD). Put plainly: Inhibition of replication of HIV-2 (ROD strain) in MT-4 cells, MTT assay. The class given is cell-based. The settings on record: Human immunodeficiency virus 2, MT4, 120 h; MT-4 cells, MTT assay, five days after infection, 50% protection from cytopathic effect; read-out: EC50 (μM) HIV-2 (ROD).

The EC50 is the concentration needed to bring the measured effect to its halfway point.

Molecules are shown by their SMILES.

Take `Nc1nc(N2CCN(C(=O)COc3ccc(Cl)cc3)CC2)c2nc(CCc3cccs3)sc2n1` [Example 154, 5-amino-2-(2-thiophen-2-ylethyl)-7-(4-[2-(4-chloro-phenoxy)acetyl]piperazin-1-yl)thiazolo[5,4-d]pyrimidine]: the EC50 in series [1] was greater than 44.4 µM. Also, the CC50 at 72 h in series [2] is greater than 44.4 µM.

Regarding `Nc1nc(N2CCN(S(=O)(=O)Cc3ccccc3)CC2)c2nc(CCc3ccc(F)cc3)sc2n1` [Example 137, 5-amino-2-[2-(4-fluorophenyl)ethyl]-7-[4-phenylmethanesulfonylpiperazin-1-yl]-thiazolo[5,4-d]pyrimidine], in series [1], the “HCV-1a Replicon Selectivity Index” value is given as 0.8 and the concentration giving a half-maximal response (EC50) turned out to be 26.9 µM. In series [2], this molecule yielded a CC50 at 72 h of 21.8 µM.

For `Nc1nc(N2CCN(C(=O)Nc3ccc(Cl)cc3)CC2)c2cc(-c3ccccc3)sc2n1` [Example 331, 4-(2-amino-6-phenylthieno[2,3-d]pyrimidin-4-yl)-N-(4-chlorophenyl)piperazine-1-carboxamide], in series [1], the “HCV-1a Replicon Selectivity Index” value worked out at 1.8 and the EC50 was 18.7 µM. Besides, the CC50 at 72 h in series [2] amounted to 34.3 µM.

Regarding `CCOc1nc(N)nc2sc(-c3ccc(F)cc3)nc12` [Example 30, 7-ethoxy-2-(4-fluorophenyl)thiazolo[5,4-d]pyrimidin-5-amine], the 50% effective concentration (EC50) with HIV-1 strain IIIB and with HIV-2 strain (ROD) was greater than 373 µM each time. Besides, the CC50 in “in vitro” is greater than 373 µM.

With `CCC(c1ccc(F)cc1)c1nc2c(N3CCN(C(=O)COc4ccc(Cl)cc4)CC3)nc(N)nc2s1` (centres unmarked) [Example 150, 5-amino-2-[1-(4-fluorophenyl)propyl]-7-(4-[2-(4-chlorophenoxy)acetyl]piperazin-1-yl)thiazolo[5,4-d]pyrimidine], in series [1], the “HCV-1a Replicon Selectivity Index” value came out at 2.0 and the EC50 is 13.1 µM. Further, the CC50 at 72 h in series [2] worked out at 25.9 µM.

Consider `Nc1nc(N2CCN(C(=O)COc3ccc(Cl)cc3)CC2)c2nc(-c3ccc(OC(F)(F)F)cc3)[nH]c2n1` [Example 395, 1-(4-(2-amino-8-(4-(trifluoromethoxy)phenyl)-9H-purin-6-yl)piperazin-1-yl)-2-(4-chlorophenoxy)ethanone], for which, in series [1], the “HCV-1a Replicon Selectivity Index” value stood at 1.1 and the EC50 is 9.9 µM. In addition, in series [2], the CC50 at 72 h was found to be 10.7 µM.

As to `Nc1nc(N2CCN(c3ccc(Cl)cc3)CC2)c2nc(-c3ccc(F)cc3)[nH]c2n1` [Example 414, 6-(4-(4-chlorophenyl)piperazin-1-yl)-8-(4-fluorophenyl)-9H-purin-2-amine], in series [1], the “HCV-1a Replicon Selectivity Index” value was 1.2 and the concentration giving a half-maximal response (EC50) was found to be 7.3 µM. The molecule further showed a CC50 at 72 h in series [2] of 8.7 µM.

Regarding `Cc1cccc(NC(=O)N2CCN(c3nc(N)nc4sc(-c5ccc(F)cc5)nc34)CC2)c1` [Example 43, 4-(5-amino-2-(4-fluorophenyl)thiazolo[5,4-d]pyrimidin-7-yl)-N-m-tolylpiperazine-1-carboxamide], the concentration giving a half-maximal response (EC50) in the series with HIV-1 strain IIIB is 0.4 µM; in the series with HIV-2 strain (ROD), 0.39 µM. For the same molecule, in “in vitro”, the CC50 was 15.8 µM.

Take `Nc1nc(N2CCN(C(=O)OCc3ccccc3)CC2)c2nc(-c3ccc(F)cc3)sc2n1` [Example 40, benzyl-4-(5-amino-2-(4-fluorophenyl)thiazolo[5,4-d]pyrimidin-7-yl)piperazine-1-carboxylate]: the EC50 in the series on HIV-1 strain IIIB and in the series on HIV-2 strain (ROD) was greater than 241 µM in each case. This molecule gave a CC50 in “in vitro” of 241 µM.

For `Cc1cccc(NC(=O)N2CCN(c3nc(N)nc4sc(C(C)c5ccc(F)cc5)nc34)CC2)c1` (centres unmarked) [Example 68, 4-(5-amino-2-(1-(4-fluorophenyl)ethyl)thiazolo[5,4-d]pyrimidin-7-yl)-N-m-tolylpiperazine-1-carboxamide], the EC50 with HIV-1 strain IIIB and in the series on HIV-2 strain (ROD) was greater than 30.3 µM throughout. The molecule also registered a CC50 in “in vitro” of 30.3 µM.

In the case of `CSc1nc(N)nc2sc(-c3ccc(F)cc3)nc12` [Example 16, 2-(4-fluorophenyl)-7-(methylthio)thiazolo[5,4-d]pyrimidin-5-amine], the values for the half-maximal effective concentration (EC50) in the series on HIV-1 strain IIIB and in the series on HIV-2 strain (ROD) were greater than 233 µM and greater than 82.1 µM, respectively. In addition, the CC50 in the series “in vitro” came to 82.1 µM.

For the molecule `COc1ccc(OCC(=O)N2CCN(c3nc(N)nc4sc(CCc5ccc(F)cc5)nc34)CC2)cc1` [Example 50, 1-(4-(5-amino-2-(4-fluorophenethyl)thiazolo[5,4-d]pyrimidin-7-yl)piperazin-1-yl)-2-(4-methoxyphenoxy)ethanone], the EC50 in the series with HIV-1 strain IIIB is 3.5 µM; in the series with HIV-2 strain (ROD) it was greater than 212 µM. Further, the CC50 in the series “in vitro” came out at 212 µM.

Regarding `Nc1nc(N2CCN(S(=O)(=O)c3ccccc3)CC2)c2nc(-c3ccc(F)cc3)sc2n1` [Example 41, 2-(4-fluorophenyl)-7-(4-(phenylsulfonyl)piperazin-1-yl)thiazolo[5,4-d]pyrimidin-5-amine], the EC50 in the series with HIV-1 strain IIIB and in the series on HIV-2 strain (ROD) was greater than 237 µM in each case. The CC50 in the series “in vitro” worked out at 237 µM.

As for `Nc1nc(N2CCOCC2)c2cc(-c3ccc(F)cc3)sc2n1` [Example 364, 6-(4-fluorophenyl)-4-morpholinothieno[2,3-d]pyrimidin-2-amine], the EC50 in the series on HIV-1 strain IIIB and in the series on HIV-2 strain (ROD) was greater than 239 µM each time. Further, in “in vitro”, the CC50 stood at 239 µM.

Consider `Nc1nc(N2CCN(Cc3ccccc3)CC2)c2nc(-c3ccc(F)cc3)sc2n1` [Example 39, 7-(4-benzylpiperazin-1-yl)-2-(4-fluorophenyl)thiazolo[5,4-d]pyrimidin-5-amine], for which the EC50 in the series on HIV-1 strain IIIB and in the series on HIV-2 strain (ROD) was greater than 45.2 µM throughout. This molecule also displayed a CC50 in “in vitro” of 45.2 µM.

Take `Nc1nc(N2CCOCC2)c2nc(-c3ccc(F)cc3)sc2n1` [Example 33, 2-(4-fluorophenyl)-7-morpholino-thiazolo[5,4-d]pyrimidin-5-amine]: the results for the 50% effective concentration (EC50) in the series on HIV-1 strain IIIB and in the series with HIV-2 strain (ROD) were greater than 207 µM and 141 µM, respectively. Also, in “in vitro”, the CC50 was found to be 235 µM.

`Nc1nc(SCc2ccccc2)c2nc(-c3ccc(F)cc3)sc2n1` [Example 28, 7-(benzylthio)-2-(4-fluorophenyl)thiazolo[5,4-d]pyrimidin-5-amine]: the EC50 with HIV-1 strain IIIB and in the series with HIV-2 strain (ROD) was greater than 339 µM throughout. In the series “in vitro”, the CC50 was greater than 339 µM.

As for `Nc1nc(N2CCOCC2)c2nc(Cc3ccc(F)cc3)sc2n1` [Example 34, 2-(4-fluorobenzyl)-7-morpholino-thiazolo[5,4-d]pyrimidin-5-amine], the concentration for a half-maximal effect (EC50) in the series on HIV-1 strain IIIB and in the series with HIV-2 strain (ROD) was greater than 362 µM each time. In “in vitro”, this molecule showed a CC50 greater than 362 µM.

With `COCCOc1nc(N)nc2sc(-c3ccc(F)cc3)nc12` [Example 29, 2-(4-fluorophenyl)-7-(2-methoxyethoxy)-thiazolo[5,4-d]pyrimidin-5-amine], the EC50 in the series on HIV-1 strain IIIB was greater than 390 µM; in the series on HIV-2 strain (ROD) it was 220 µM. The CC50 in the series “in vitro” was greater than 390 µM.

With `Nc1nc(N2CCN(c3nccs3)CC2)c2nc(-c3ccc(F)cc3)sc2n1` [Example 36, 2-(4-fluorophenyl)-7-(4-(thiazol-2-yl)piperazin-1-yl)thiazolo[5,4-d]pyrimidin-5-amine], the values for the EC50 in the series with HIV-1 strain IIIB and with HIV-2 strain (ROD) were greater than 29 µM and greater than 36.4 µM, respectively. In the series “in vitro”, this molecule returned a CC50 of 36.4 µM.

As for `CCCCCN1CCN(c2nc(N)nc3sc(-c4ccc(F)cc4)nc23)CC1` [Example 37, 2-(4-fluorophenyl)-7-(4-pentylpiperazin-1-yl)thiazolo[5,4-d]pyrimidin-5-amine], the EC50 with HIV-1 strain IIIB was greater than 312 µM; with HIV-2 strain (ROD) it was 212 µM. Also, the CC50 in “in vitro” was greater than 312 µM.

In the case of `Cc1cccc(NC(=O)N2CCN(c3nc(N)nc4sc(Cc5ccc(F)cc5)nc34)CC2)c1` [Example 44, 4-(5-amino-2-(4-fluorobenzyl)thiazolo[5,4-d]pyrimidin-7-yl)-N-m-tolylpiperazine-1-carboxamide], the EC50 was 4.02 µM in the series with HIV-1 strain IIIB and 0.85 µM in the series on HIV-2 strain (ROD). Moreover, the CC50 in “in vitro” came to 10.1 µM.

For `Nc1nc(N2CCN(CC(=O)N3CCOCC3)CC2)c2nc(-c3ccc(F)cc3)sc2n1` [Example 38, 2-(4-(5-amino-2-(4-fluorophenyl)thiazolo[5,4-d]pyrimidin-7-yl)piperazin-1-yl)-1-morpholinoethanone], the values for the EC50 with HIV-1 strain IIIB and in the series on HIV-2 strain (ROD) were greater than 251 µM and greater than 201 µM, respectively. In addition, the CC50 in “in vitro” was found to be 201 µM.

Consider `Cc1cccc(N2CCN(c3nc(N)nc4sc(-c5ccc(F)cc5)nc34)CC2)c1` [Example 35, 2-(4-fluorophenyl)-7-(4-m-tolylpiperazin-1-yl)-thiazolo[5,4-d]pyrimidin-5-amine], for which the 50% effective concentration (EC50) is greater than 234 µM in the series on HIV-1 strain IIIB and greater than 38.5 µM with HIV-2 strain (ROD). In “in vitro”, this molecule showed a CC50 of 234 µM.

`CCOc1nc(N)nc2sc(Cc3ccc(F)cc3)nc12` [Example 31, 7-ethoxy-2-(4-fluorobenzyl)thiazolo[5,4-d]pyrimidin-5-amine]: the 50% effective concentration (EC50) in the series with HIV-1 strain IIIB and in the series with HIV-2 strain (ROD) was greater than 411 µM in each case. In the series “in vitro”, this molecule displayed a CC50 greater than 411 µM.

In the case of `Nc1nc(N2CCN(C(=O)COc3ccc(Cl)cc3)CC2)c2nc(-c3ccc(F)cc3)oc2n1` [Example 169, 1-(4-(5-amino-2-(4-fluorophenyl)oxazolo[5,4-d]pyrimidin-7-yl)piperazin-1-yl)-2-(4-chlorophenoxy)ethanone], the EC50 in the series on HIV-1 strain IIIB and in the series on HIV-2 strain (ROD) was greater than 50 µM each time. The CC50 in “in vitro” is greater than 50 µM.

Consider `Nc1nc(N2CCNCC2)c2nc(-c3ccc(F)cc3)sc2n1` [Example 25, 2-(4-fluorophenyl)-7-(piperazin-1-yl)-thiazolo[5,4-d]pyrimidin-5-amine], for which the EC50 with HIV-1 strain IIIB and in the series with HIV-2 strain (ROD) was greater than 1.8 µM throughout. Further, the CC50 in “in vitro” was determined as 1.8 µM.

For the molecule `Cc1ccc(NC(=O)N2CCN(c3nc(N)nc4sc(-c5ccc(F)cc5)nc34)CC2)cc1` [Example 42, 4-(5-amino-2-(4-fluorophenyl)-thiazolo[5,4-d]pyrimidin-7-yl)-N-p-tolylpiperazine-1-carboxamide], the results for the EC50 in the series on HIV-1 strain IIIB and with HIV-2 strain (ROD) were 1.35 µM and 0.98 µM, respectively. The molecule also gave a CC50 in “in vitro” of 28.2 µM.
